Legend:
TRPA1 (worm) = target: T1, TRPA1 (worm) (Caenorhabditis elegans, UniProt Q18297); assay: Calcium imaging of HEK293T cells (Rhod-3 AM), worm TRPA1; assay type: cell-based, C. elegans; conditions: HEK293 cells transfected with worm TRPA1 and GFP; 100 pM AITC
T1 construct: expressed in transfected cells; host or cells: HEK293T
T1 sequence (Q18297 1-1211): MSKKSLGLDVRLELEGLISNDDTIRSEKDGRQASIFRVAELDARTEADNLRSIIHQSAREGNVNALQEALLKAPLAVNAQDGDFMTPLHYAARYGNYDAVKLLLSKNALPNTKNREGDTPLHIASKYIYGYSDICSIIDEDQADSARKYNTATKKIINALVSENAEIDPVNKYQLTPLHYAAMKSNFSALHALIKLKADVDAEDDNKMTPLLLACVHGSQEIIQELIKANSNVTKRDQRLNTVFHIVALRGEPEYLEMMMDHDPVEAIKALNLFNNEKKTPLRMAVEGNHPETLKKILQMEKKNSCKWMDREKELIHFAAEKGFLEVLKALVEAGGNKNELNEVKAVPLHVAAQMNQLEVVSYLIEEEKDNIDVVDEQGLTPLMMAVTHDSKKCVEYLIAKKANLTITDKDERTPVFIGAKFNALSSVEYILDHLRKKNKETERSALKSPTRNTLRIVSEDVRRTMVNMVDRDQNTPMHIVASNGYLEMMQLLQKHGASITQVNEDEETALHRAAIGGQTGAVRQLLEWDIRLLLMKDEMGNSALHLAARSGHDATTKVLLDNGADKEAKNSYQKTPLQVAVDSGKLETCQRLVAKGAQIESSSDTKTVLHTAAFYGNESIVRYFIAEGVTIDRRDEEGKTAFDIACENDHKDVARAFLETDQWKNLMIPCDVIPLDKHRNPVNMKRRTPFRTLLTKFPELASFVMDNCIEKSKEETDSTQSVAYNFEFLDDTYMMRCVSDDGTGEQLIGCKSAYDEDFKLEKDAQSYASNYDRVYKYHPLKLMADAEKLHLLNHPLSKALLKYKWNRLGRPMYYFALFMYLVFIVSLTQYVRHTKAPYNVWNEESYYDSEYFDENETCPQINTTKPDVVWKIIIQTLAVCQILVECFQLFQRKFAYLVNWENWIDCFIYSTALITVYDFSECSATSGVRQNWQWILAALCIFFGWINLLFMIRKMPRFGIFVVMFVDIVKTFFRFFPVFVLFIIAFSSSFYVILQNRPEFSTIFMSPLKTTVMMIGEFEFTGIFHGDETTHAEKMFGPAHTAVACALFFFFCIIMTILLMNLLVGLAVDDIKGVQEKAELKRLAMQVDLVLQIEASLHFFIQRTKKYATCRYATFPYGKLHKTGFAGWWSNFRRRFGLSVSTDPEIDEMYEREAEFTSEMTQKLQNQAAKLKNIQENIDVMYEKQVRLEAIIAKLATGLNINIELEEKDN
Description: (§1) Appropriate HEK293T-derived cells were seeded on collagen-coated glass bottom culture dishes (MatTek Corporation). Cells were loaded with 10 pM of Rhod-3 AM (Life Technology) for 30 min at 37° C. After 30 min they were washed twice with standard Tyrode's solution (135 mM NaCl, 4 mM KCl, 10 mM glucose, 10 mM HEPES, 2 mM CaCl2, and 1 mM MgCl2 at pH=7.4) at room temperature. Calcium imaging was performed on an Olympus BX51WI Axiovert microscope under a 60× objective. Fluorescent images were documented upon sequential excitation with 555 nm followed by 484 nm with a Roper CoolSnap CCD camera. After establishing a baseline 555/484 ratio, methylglyoxal or other agonists were diluted with Tyrode's solution (100 pM or 1 mM final concentration) and were perfused into cells. Images were processed with the MetaFlour (Olympus) software.

TRPA1 (RAT) = target: T2, TRPA1 (RAT) (Rattus norvegicus, UniProt Q6RI86); conditions: stated as known; cited from earlier work
T2 construct: expressed in transfected cells; host or cells: HEK293T
T2 sequence (Q6RI86 whole entry): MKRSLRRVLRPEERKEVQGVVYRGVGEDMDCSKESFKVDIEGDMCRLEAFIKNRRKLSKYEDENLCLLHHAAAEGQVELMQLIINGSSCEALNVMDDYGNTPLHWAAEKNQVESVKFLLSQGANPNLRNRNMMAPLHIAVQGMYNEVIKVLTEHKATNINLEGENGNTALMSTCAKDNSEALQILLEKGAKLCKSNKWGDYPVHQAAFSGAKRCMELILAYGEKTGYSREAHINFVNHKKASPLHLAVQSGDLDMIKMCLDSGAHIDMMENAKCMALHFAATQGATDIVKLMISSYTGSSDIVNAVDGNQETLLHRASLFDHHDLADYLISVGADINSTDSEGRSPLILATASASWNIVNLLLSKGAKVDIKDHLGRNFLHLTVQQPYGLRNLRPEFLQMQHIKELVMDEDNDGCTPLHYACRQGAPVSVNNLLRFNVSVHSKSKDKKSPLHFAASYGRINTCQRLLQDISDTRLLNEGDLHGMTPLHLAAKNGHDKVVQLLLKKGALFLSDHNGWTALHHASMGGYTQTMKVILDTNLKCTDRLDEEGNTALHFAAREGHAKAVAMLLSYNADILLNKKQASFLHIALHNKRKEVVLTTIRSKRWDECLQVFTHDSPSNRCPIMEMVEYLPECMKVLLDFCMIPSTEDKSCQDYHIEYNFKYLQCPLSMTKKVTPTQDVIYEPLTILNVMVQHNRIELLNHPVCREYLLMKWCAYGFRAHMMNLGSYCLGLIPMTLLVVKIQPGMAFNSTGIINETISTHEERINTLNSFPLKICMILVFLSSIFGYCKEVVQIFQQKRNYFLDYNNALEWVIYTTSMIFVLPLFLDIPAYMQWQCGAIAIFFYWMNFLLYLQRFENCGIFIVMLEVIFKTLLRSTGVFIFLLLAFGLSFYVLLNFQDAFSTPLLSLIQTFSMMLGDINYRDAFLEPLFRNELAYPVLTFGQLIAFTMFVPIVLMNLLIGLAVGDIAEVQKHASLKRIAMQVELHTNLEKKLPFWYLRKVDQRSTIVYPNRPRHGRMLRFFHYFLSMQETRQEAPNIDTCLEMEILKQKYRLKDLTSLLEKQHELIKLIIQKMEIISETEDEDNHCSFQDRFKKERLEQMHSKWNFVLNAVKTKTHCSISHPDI

C. elegans [1] = assay: Touch assay (touch index, gentle touch); conditions: glod-4, young adult stage; 66.7 pM in DMSO
Description: For feeding RNAi bacteria, synchronized L1 larvae were transferred to NGM plates containing 1 mM of isopropyl P-D-1- thiogalactopyranoside/IPTG (referred to as RNAi plates) seeded with 20× concentrated HT1115 bacteria (cultured overnight at 20° C. at 220 rpm), carrying desired plasmid for RNAi of a specific gene or bacteria carrying empty vector pL4440 as control and allowed to grow on plates for 48 h. For drug assays, synchronized L4 larvae were transferred to either 60 mm NGM plates (with or without IPTG), freshly seeded with 5×E. coli OP50-1 or 20× HT1115 RNAi bacteria. Before seeding, the desired drug (or vehicle control) was mixed with the bacteria. Final drug concentrations were calculated considering the total volume of media and bacteria seeded on the NGM plates.
Briefly, each animal was touched alternately in the head region and in the tail with an eyelash. Typically, an omega turn or diversion in head direction resulting from anterior touch was counted as a positive response. Posterior touch response (not counted towards positive response) functioned towards resetting of the response to anterior touch. Touch index (TI) scores were generated by dividing the total number of positive responses over the […] per animal.
Synchronized glod-4 L1 animals were cultured on NGM agar plates seeded with E. coli OP50-1 until L4. […] Post-transfer into wells, animals were fed OP50-1 bacteria ad libitum while incubating at 20° C. on a rocker for 12 h. DMSO was used as control. Post-incubation with drug or DMSO, animals were transferred from wells onto NGM agar plates seeded with OP50-1 bacteria. Touch assay was performed on individual animal and touch index (TI) was calculated for each compound from the library as mentioned earlier.

C. elegans [2] = assay: Lifespan assay (survival curves); assay type: in vivo, Caenorhabditis elegans; conditions: glod-4 mutant animals; PA, LA, or UMP (20 pM) vs EtOH control
Description: Life span assays were performed in Thermo Scientific Precision incubators at 20° C. After alkaline hypochlorite treatment, synchronized L1 animals were either placed onto NGM plates seeded with 5× concentrated E. coli OP50-1 (cultured on Lysogeny Broth/LB overnight) or on RNAi plates supplemented with 20×HT1115 RNAi bacteria. Post-L4 stage of development, all lifespan assays were performed using FUdR (5-fluoro-2 deoxyuridine) plates to inhibit development and growth of progeny. Every two days, animals were transferred on to new 60 mm NGM or RNAi plates freshly seeded with OP50-1 or HT1115 bacteria (with or without drug), respectively. 90-120 animals were considered for each lifespan experiment. Animal viability was assessed visually or with gentle prodding on the head. Animals were censored in the event of internal hatching of the larvae, body rupture, or crawling of larvae from the plates.

SKN-1/Nrf2 = assay: SKN-1 activation assay (GFP reporters for SKN-1, gst-4, gcs-1; qPCR); assay type: in vivo, Caenorhabditis elegans; conditions: gst-4p::gfp animals on EV or glod-4 RNAi; PA, LA, or UMP (20 pM)
Description: Adult animals were examined for SKN-1/Nrf2 activation using GFP reporters for both SKN-1 and SKN-1 target genes: gst-4 and gcs-1. For exogenous MGO and drug assays, age-synchronized GFP reporter strains were subject to control and treatment conditions for a period of 4-6 hours before microscopy. For RNAi-induced activation studies, GFP reporter strains were fed on HT1115 bacteria expressing empty vector pL4440 or RNAi gene from L1 stage. Synchronized day 1 adult animals were then subjected to microscopic examination. Activation of SKN-1 using SKN-1 fusion reporter was determined as described earlier (An et al. (2003) Genes & Dev. 17: 1882-1893; Onken and Driscoll (2010) PloS One, 5: e8758). Scoring for downstream SKN-1 targets carrying GFP reporter for gcs-1 promoter was performed based on a previous study (Wang et al. (2010) PLoS Genetics, doi. org/10.1371/journal.pgen.1001048) and categorized as follows: ‘high’ for strong GFP signal throughout the intestine, ‘medium’ for GFP signal in the anterior or posterior section of the intestine and ‘low’ for weak or no signal. For animals with gst-4 promoters carrying GFP reporters number of GST-4 positive foci was counted under different conditions as described previously (Fensgardet al. (2010) Aging, 2: 133-159). Quantification of acquired images was done using the Image J™ software (//imagej.nih.gov/ij/).
Total RNA was extracted from nearly 100 age-synchronized adult animals picked and collected in 20 pl of M9 buffer using TRIzol reagent (Life Technologies, CA). Subsequently, 1 pg total RNA was used as template for cDNA synthesis. cDNA was synthesized using the ISCRIPT™ cDNA synthesis kit (Bio-Rad, CA) following manufacturer's protocol. qRT-PCR was carried out using the SensiFAST SYBR No-ROX kit (Bioline, MA) in a LightCycler 480 Real-Time PCR system (Roche Diagnostics Corp., IN). Quantification was performed using the comparative AACt method and normalization for internal reference was done using actin gene act-1.

glod-4 animals = assay: LC-MS/MS estimation of a-DC levels (MGO, GO) in worms; assay type: in vivo, Caenorhabditis elegans; conditions: glod-4, PA
Description: Worms were cultured on NGM agar plates as explained before for lifespan experiments with some modifications: ˜100 animals/60 mm plates were used for each experimental replicate and animals were harvested at day 4 of adulthood with 20 pL M9 buffer in 1.5 mL eppendorf tubes. Worm suspensions were flash-frozen over liquid nitrogen and subsequently homogenized ultrasonically using a Fisher Scientific's 550 Sonic Dismembrator with 80 pL of sodium formate buffer (pH=3) containing 75 pM of 2,3-hexanedione (internal standard, IS). Two 20 s pulses at amplitude setting 4 of the instrument (on ice) were sufficient to completely homogenize worm bodies. To each homogenate tube 20 pL of 100 mg/mL o-phenelynediamine (OPD) solution in sodium formate buffer (pH=3) were added, and the mixture was allowed to react in dark at room temperature for ˜22 h. The long reaction time and the pH are critical parameters in this protocol: first to ensure complete derivatization of a-DCs bound reversibly to protein/glutathione —SHs; and second to prevent in vitro a-DC generation from glycolytic intermediates (DHAP, GAP, etc.) or due to DNA breakdown (Chaplen et al. (1998) Proc. Natl. Acad. Sci. USA, 95: 5533-5538). At the end of the stipulated reaction window, 12 pL of 5 M perchloric acid was added to each tube and incubated on ice for 30 min to ensure complete protein precipitation. Subsequently, the tubes were centrifuged at 10,000 rpm for 10 min, and the supernatant collected and neutralized with 30 pL 4 M NH4OH solution.
Optimization of analyte-specific MRM transitions, such as determination of suitable precursor and product ions and optimal MS parameters for each transition (Q1, precursor→Q3, product) were achieved by isocratic flow injection of the 10 pM solution (final) for each standard- or IS-OPD derivatives. The most intense (Q1→Q3) transition was used as quantifier, whereas the next best transition was used as qualifier for each compound (Table 4). For LC separation, a solvent gradient of 0.1% acetic acid in water (aqueous) - methanol (organic) was used with 0.4 mL/min flow rate, starting with an […] content of 3% for 0.7 min, which was increased to 100% over 6 min and held at 100% for 1.5 min. The LC column was subsequently reconstituted to its initial condition (methanol content of 3%) over the next 0.5 min and re-equilibrated for 3 min.
Derivatized metabolome extracts, as well as synthetic a-DCs were analyzed by scheduled LC-MRM in positive ion mode. To develop the scheduled LC-MRM method, MS/MS data was collected for all transitions across the length of each LC run for a mixture of synthetic GO-, MGO-, 3DG-, and 2,3-hexanedione (IS)-OPD derivatives (1 pL injection of 1 pM final concentration). Source conditions were as follows: curtain gas (CUR) 20, nebulizer gas (GS1) 60, auxiliary gas (GS2) 50, ionspray voltage (IS) 4500 V, and source temperature (TEM) 450° C. This step was undertaken to ascertain the LC retention times (RT) for the OPD derivatives. Several such sets were acquired to compute analyte-specific variability in RTs. Next, the MS was switched to operate in scheduled MRM mode, whereby the mass spectrometer acquired data for specific MRM transitions ±45 s around the computed RT for the analyte (Table 4). Relative quantification of GO, MGO, and 3DG were based on integration of corresponding OPD derivative-specific quantifier peaks obtained from scheduled LC-MRM runs (peak areas) and adjusted to the number of animals. To account for OPD derivatization efficiencies in individual tubes, sample-to-sample variability in MS response, and differential sample dilutions (both for synthetic a-DCs as well as a-DCs in worm homogenates), the peak areas were normalized to the quantifier peak area for IS-OPD for each sample.

TRPM8 (mouse) = target: T3, TRPM8 (mouse) (Mus musculus, UniProt Q8R4D5); assay: Calcium imaging of HEK293T cells (Rhod-3 AM), mouse TRPM8; assay type: cell-based; conditions: HEK293T transfected with mouse TRPM8 and GFP; 100 pM MGO then 100 pM menthol
T3 construct: expressed in transfected cells; host or cells: HEK293T
T3 sequence (Q8R4D5 whole entry): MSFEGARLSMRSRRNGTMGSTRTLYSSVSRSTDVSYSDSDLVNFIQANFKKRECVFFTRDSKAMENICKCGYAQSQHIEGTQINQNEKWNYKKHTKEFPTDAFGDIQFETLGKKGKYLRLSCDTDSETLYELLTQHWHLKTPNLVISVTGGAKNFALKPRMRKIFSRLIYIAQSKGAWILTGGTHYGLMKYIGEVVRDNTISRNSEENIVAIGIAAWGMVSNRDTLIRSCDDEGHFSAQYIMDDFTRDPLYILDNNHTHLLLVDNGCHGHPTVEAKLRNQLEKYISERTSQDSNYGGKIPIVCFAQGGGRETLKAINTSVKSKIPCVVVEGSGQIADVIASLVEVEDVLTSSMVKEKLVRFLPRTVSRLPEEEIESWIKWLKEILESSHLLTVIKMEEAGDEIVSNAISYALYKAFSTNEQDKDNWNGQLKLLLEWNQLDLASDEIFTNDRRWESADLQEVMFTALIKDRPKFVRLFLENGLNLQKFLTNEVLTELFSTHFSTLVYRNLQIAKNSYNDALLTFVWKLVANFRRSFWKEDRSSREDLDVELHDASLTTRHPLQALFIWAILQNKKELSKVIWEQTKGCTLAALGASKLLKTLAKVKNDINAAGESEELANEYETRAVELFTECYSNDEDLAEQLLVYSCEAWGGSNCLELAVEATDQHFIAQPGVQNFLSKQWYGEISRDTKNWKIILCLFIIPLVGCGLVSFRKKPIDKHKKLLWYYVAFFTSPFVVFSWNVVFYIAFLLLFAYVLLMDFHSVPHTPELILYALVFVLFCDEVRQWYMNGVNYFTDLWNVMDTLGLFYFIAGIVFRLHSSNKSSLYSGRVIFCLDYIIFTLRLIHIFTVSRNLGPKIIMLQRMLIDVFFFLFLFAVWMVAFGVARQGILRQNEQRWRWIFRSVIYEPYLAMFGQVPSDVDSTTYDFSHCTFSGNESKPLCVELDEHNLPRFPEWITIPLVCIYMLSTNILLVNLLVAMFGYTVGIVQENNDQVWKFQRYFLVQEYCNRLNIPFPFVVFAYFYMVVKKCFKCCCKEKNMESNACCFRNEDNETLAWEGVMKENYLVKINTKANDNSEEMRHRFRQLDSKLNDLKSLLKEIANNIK
Description: as §1

native HEK293T cells = assay: Calcium imaging of native HEK293T cells (GFP only); assay type: cell-based
Description: as §1

C=CCN=C=S [AITC, allyl isothiocyanate]
Activation of worm TRPA1 channel (Ca2+ flux, Rhod-3 AM) (TRPA1 (worm)): failed to activate | Activation of mammalian TRPA1 (TRPA1 (RAT)): known to activate

O=c1ccn([C@@H]2O[C@H](COP(=O)(O)O)[C@@H](O)[C@H]2O)c(=O)[nH]1 [UMP, Uridine monophosphate]
Touch sensitivity (touch index) in drug screen of TimTec NPL640 (C. elegans [1]): reduced touch sensitivity | Lifespan / early mortality (survival curves) (C. elegans [2]): does not ameliorate | SKN-1 activation (GFP foci in gst-4p::gfp) (SKN-1/Nrf2): nor does it activate SKN-1 | Levels of GO (glod-4 animals; LA, or UMP (20 pM each) vs EtOH control): does not ameliorate | Levels of MGO (glod-4 animals; LA, or UMP (20 pM) vs EtOH control): does not ameliorate

CC1CCC(C(C)C)C(O)C1 (stereo not drawn) [menthol]
Ca2+ flux through the TRPM8 channel (Rhod-3 AM) (TRPM8 (mouse)): triggers a Ca^+2 flux | Ca2+ flux in native HEK293T cells (Rhod-3 AM) (native HEK293T cells): neither compounds resulted in Ca^+2 flux

— US20180015051A1, “MODULATORS OF ALPHA-DICARBONYL DETOXIFICATION AND THEIR USE FOR THE TREATMENT OF DIABETIC PATHOLOGIES” (Buck Institute for Research on Aging, priority 2016, published 2018)
